# Data taken from patent publication US20100120662A1, “Glucose uptake modulator and method for treating diabetes or diabetic complications” (POSTECH Foundation, priority 2005, published 2010).
# Ends that are not written are not given here.
# Experiments:
# 3T3-L1 adipocytes = experiment: [14C] 2-deoxy-D-glucose uptake in 3T3-L1 adipocytes; assay type: cell-based; details: for stimulation of glucose uptake: equimolar 20 μM, 10 min; for effect of pretreatment on LPC-stimulated glucose uptake: then 20 μM LPC 10 min; for time and dose dependence of glucose uptake: various concentrations
# Procedure: Cell culture: 3T3-L1 fibroblasts were grown to confluence in DMEM containing a high glucose concentration, 10% fetal bovine serum, 50 U of penicillin per ml, and 50 ug of streptomycin per ml and maintained in a 5% CO2 humidified atmosphere at 37° C. 3T3-L1 was induced to differentiate into adipocytes, as described previously (van den Berghe, N., et al., Mol Cell Biol 14, pp. 2372-2377, 1994).
# Glucose uptake measurement. For measuring glucose uptake in 3T3-L1 adipocytes, cells were grown in serum-free DMEM for 16 h and then incubated in the absence or presence of insulin or lysophospholipids for the indicated times at 37° C. Uptake was measured by adding 1 μCi of [^14C] 2-deoxy-D-glucose and 3 mM 2-deoxy-D-glucose. After 10 min, the assay was terminated by two quick washes with ice-cold PBS. Cells were lysed in 0:5 ml of lysis buffer containing 0.5 N NaOH and 0.1% SDS. The cell lysates were used for liquid scintillation counting and nonspecific uptake was assayed in the presence of 10 μM cytochalasin B (van den Berghe, N., et al., Mol Cell Biol 14, pp. 2372-2377, 1994).
# FIG. 2A to 2D show the effects of LPC on the glucose uptake in 3T3-L1 adipocytes. […] After these treatments, [^14C] 2-deoxy-D-glucose uptake was measured for 10 min as described in Material Methods. […] FIGS. 2C and 2D show relative [^14C] 2-deoxy-D-glucose uptake in 3T3-L1 adipocytes incubated in the absence (control) or presence of equimolar concentrations (20 μM) of myristoyl lysophosphatidylcholine (14:0 LPC), palmytoyl lysophosphatidylcholine (16:0 LPC), stearoyl lysophosphatidylcholine (18:0 LPC), palmytoyl lysophsophatidylethanolamine (16:0 LPE), palmytoyl lyso-phosphatidylinositol (16:0 LPI), palmytoyl lysophosphatidylglycerol (16:0 LPG) for 10 min. Values are mean±SE of three independent experiments performed in triplicate. *P<0.05 vs. basal.
# male ICR mice [1] = experiment: Acute blood glucose lowering in normal ICR mice after intravenous lysophospholipid; assay type: in vivo, mouse; details: for level of blood glucose in normal mice: intravenous, 0 to 120 min after dosing
# insulin receptor (IR) = experiment: IR autophosphorylation in hIRcB cells; assay type: cell-based, human; details: hIRcB cells
# Procedure: FIG. 12A shown a comparison of insulin sensitizing effect among CRF family which was obtained by incubating cells with 1 μM CRF family and/or 2 nM insulin or with medium alone for 1 min. […] FIG. 12B was obtained by incubating cells with 2 nM insulin and variant dose of UCN (from 2 nM to 1 μM) for 1 min. FIG. 12C was obtained by incubating cells 100 nM UCN and variant dose of insulin for 1 min. Phosphorlyation of IR was assessed by western blotting with anti-pTyr antibodies. FIG. 13D was obtained by incubating cells with 100 nM UCN and/or 10 nM insulin for 0, 2, 10, 30, and 60 min, and then assessing the phosphorlyation of IR by western blotting with anti-pIR antibodies. Quantization of IR autophosphorylation was measured with image gauge software (Fuji film). The values are the mean±S.E. for three experiments. *, P<0.05
# hIRcB cells were maintained in DMEM, supplemented with 10% (v/v) FBS. The cells were grown at 37° C. in a humidified atmosphere of 5% CO2 and 95% air.
# After treatment of ligands as indicated time and dose, the cells were washed with cold PBS and lysed with lysis buffer (50 mM HEPES pH 7.5, 150 mM NaCl, 1%
# Triton X-100, 1 mM EDTA, 10% glycerol) containing protease inhibitors (0.5 mM PMSF, 1 μg/ml leupeptin and 5 μg/ml aprotinin) and phosphatase inhibitors (30 mM NaF, 1 mM Na3VO4 and 30 mM Na4O7P2). The cell lysates were incubated for 1 hr at 4° C. After centrifugation (14,000×g for 15 min), equal amounts of soluble extract were incubated, for 4 hrs, with 5 μg of anti-IR antibody and 30 μl of resin volume of immobilized protein A. For gel electrophoresis, the precipitates were dissolved in Laemmli sample buffer. The sample was separated by SDS-PAGE and transferred to a nitrocellulose membrane (Schleicher and Schuell, BA85). Blocking was performed with TTBS buffer (10 mM Tris/HCl, pH 7.5, 150 mM NaCl, and 0.05% Tween 20) containing 5% skimmed milk powder. The membrane was probed with primary for 3 hrs at room temperature. Subsequently the immunoblot was washed and incubated with horseradish peroxidase-linked secondary antibody for 1 hr at room temperature, rinsed four times in TTBS buffer, and developed with horseradish peroxidase-dependent chemiluminescence reagents (Amersham International, United Kingdom).
# IRS1 and AKT = IRS1 and AKT phosphorylation in 3T3-L1 adipocytes (immunoblot); assay type: cell-based
# Procedure: Immunoblotting. For preparing total cell lysates, 3T3-L1 adipocytes were washed with Ca^2+/Mg^2+-free PBS and then lysed in the lysis buffer (50 mM HEPES, pH 7.2, 150 mM NaCl, 50 mM NaF, 1 mM Na3VO4, 10% glycerol, 1% Triton X-100). The lysates were centrifuged at 15,000 rpm for 15 min at 4° C. The proteins were denatured by boiling in laemmli sample buffer for 5 min at 95° C., separated by SDS-PAGE. SDS-gel was transferred to nitrocellulose membrane using Hoefer wet transfer system. Membranes were blocked in TTBS (20 mM Tris-HCl, pH 7.6, 150 mM NaCl, 0.05% Tween 20) containing 5% skimmed milk powder for 30 min and then incubated with antibodies for 3 hours. After washing membranes several times with TTBS, the blots were incubated with HRP (Horseradish peroxidase)-conjugated goat anti-rabbit for 1 hour. The blots were washed with TTBS and developed by ECL.
# male ICR mice [2] = experiment: Serum insulin level in mice after single intravenous injection; assay type: in vivo, mouse
# Procedure: (§1) Animals. Male ICR mice were purchased from hyochang science (ROK). C57BLKSJ-db/db mice were purchased from SLC (Japan). After intravenous injection of LPC, blood glucose was measured regularly with a portable glucose meter (Gluco-Dr, ROK) after tail snipping. For measurement of serum insulin, blood samples of mice were determined with the insulin-RIA Kit (LINCO, Missouri). Insulin deficient mice were induced in male ICR mice by two consecutive daily intraperitoneal injection of STZ (200 mg/kg) dissolved in sodium citrate (pH 5.5). On the third day after the last STZ injection, acute glucose lowering effect was analyzed after intravenous injection of vehicle, LPC or insulin as described above.
# (§2) Eight-week-old male mice were intravenously injected with PBS, insulin, LPC, or LPE. Blood glucose was monitored after dosing (0 to 120 min). […] All animals had free access to water. Animal care was in accordance with institutional guidelines. All data are shown as means±SE (n=5-6).*P<0.05.
# [3] = test system: STZ-treated insulin deficient ICR male mice; experiment: Acute glucose lowering in streptozotocin (STZ)-treated insulin deficient ICR mice; assay type: in vivo, mouse; details: LPS injected, dose not given
# Procedure: as §1, §2
# GLUT4 = GLUT4 translocation to the plasma membrane in 3T3-L1 adipocytes; assay type: cell-based; details: 100 nM insulin, 10 min
# Procedure: Membrane fractionation of adipocytes. For obtaining total membranes (TM) from 3T3-L1 adipocytes, cells were collected into 10 ml of ice-cold HES buffer (250 mM sucrose, 1 mM EDTA, 1 mM phenylmethylsulfonyl fluoride [PMSF], 1 μM pepstatin, 1 μM aprotinin, 1 μM leupeptin, and 20 mM HEPES, pH 7.4) and subsequently homogenized with 30 strokes in a glass Dounce homogenizer at 4° C. After centrifugation at 1,000 g for 5 min at 4° C. to remove unbroken cells, the supernatant was then centrifugated at 212,000 g for 90 min at 4° C. to yield a pellet of total cellular membranes. To obtain the plasma membrane (PM) subcellular fraction from 3T3-L1 adipocytes, differential ultracentrifugation was used as described previously (Perrini, S., et al., Diabetes 53, pp. 41-52, 2004).
# Immunoblotting. For preparing total cell lysates, 3T3-L1 adipocytes were washed with Ca^2+/Mg^2+-free PBS and then lysed in the lysis buffer (50 mM HEPES, pH 7.2, 150 mM NaCl, 50 mM NaF, 1 mM Na3VO4, 10% glycerol, 1% Triton X-100). The lysates were centrifuged at 15,000 rpm for 15 min at 4° C. […]
# FIGS. 3A and 3B show LPC stimulates GLUT4 translocation in 3T3-L1 adipocytes. […] In each experiment, the relative increase or decrease in the integrated density value (IDV) of GLUT4 after stimulation with compounds is calculated. B) Quantitation of relative increases is depicted. […]
# [4] = 3T3-L1 adipocytes, 10 min incubation
molecule,measurement,setting,value
"CCCCCCCCCCCCCCCCCC(=O)OCC(O)COP(=O)([O-])OCC[N+](C)(C)C (stereo not shown) [stearoyl LPC, stearoyl lysophosphatidylcholine, reference compound]",stimulation of glucose uptake,3T3-L1 adipocytes,did not stimulate glucose uptake
"CCCCCCCCCCCCCCCC(=O)OC[C@@H](O)COP(=O)(O)OCCN [palmytoyl LPE, palmytoyl lysophsophatidylethanolamine]",stimulation of glucose uptake,3T3-L1 adipocytes,did not stimulate glucose uptake
same,level of blood glucose in normal mice,"male ICR mice [1]; LPA study (FIG. 11A, 11B)",did not lower the blood glucose level in normal mice
same,level of blood glucose in normal mice,"male ICR mice [1]; LPS study (FIG. 7A, 7B)",did not lower the blood glucose level in normal mice
"CCCCCCCCCCCCCCCC(=O)OC[C@@H](O)COP(=O)(O)OCC(O)CO (stereo partly shown) [palmytoyl LPG, palmytoyl lysophosphatidylglycerol, reference compound]",stimulation of glucose uptake,3T3-L1 adipocytes,did not stimulate glucose uptake
"CCCCCCCCCCCCCC(=O)OCC(O)COP(=O)([O-])OCC[N+](C)(C)C (stereo not shown) [myristoyl LPC, myristoyl lysophosphatidylcholine]",stimulation of glucose uptake,3T3-L1 adipocytes,stimulated glucose uptake
CCCCCCCCCCCCC/C=C/[C@@H](O)[C@@H](N)COP(=O)(O)O [S1P],level of blood glucose in normal mice,"male ICR mice [1]; LPA study (FIG. 11A, 11B)",did not lower the blood glucose level in normal mice
same,level of blood glucose in normal mice,"male ICR mice [1]; LPS study (FIG. 7A, 7B)",did not lower the blood glucose level in normal mice
"CRF: Corticotrophin releasing factor (CRF), synthesized from Anygen (SEEPPISLDLTFHLLREVLEMARAEQLAQQAHSNRKLMEII; ends and bridges not checked; UniProt P06850 154-194, looked up) [reference compound]",insulin-mediated IR phosphorylation,"insulin receptor (IR); 1 μM CRF family peptide with 2 nM insulin, 1 min",potentate insulin-mediated IR phosphorylation
same,IR phosphorylation by peptide alone,insulin receptor (IR); without insulin,no effect on IR phosphorylation
"Cn1c2ccccc2c2c3c(c4c5ccccc5n(CCC#N)c4c21)CNC3=O [Gö6976, reference compound]",effect of pretreatment on LPC-stimulated glucose uptake,3T3-L1 adipocytes; 2 μM Gö6976 for 30 min,did not alter LPC stimulation of glucose uptake
"Cc1noc(-c2ccc(CSCCC(=O)O)cc2)c1NC(=O)OC(C)c1ccccc1Cl (stereo not shown) [Ki16425, reference compound]",effect of pretreatment on LPA-stimulated glucose uptake,3T3-L1 adipocytes; Ki16425 (LPA receptor antagonist) pretreatment,completely inhibited
same,effect on the glucose lowering effect by LPA,male ICR mice [1]; Ki16425 injected prior to administration of LPA,inhibited
lysophosphatidic acid [LPA],incubation time at which glucose uptake was maximally increased,"3T3-L1 adipocytes; 20 μM, 0 to 20 min",10 min
same,concentration of initial statistically significant effect on glucose uptake,3T3-L1 adipocytes; [4],1 µM
same,concentration of maximal effect on glucose uptake,3T3-L1 adipocytes; [4],20 µM
same,time and dose dependence of glucose uptake,3T3-L1 adipocytes; 3T3-L1 adipocytes,time- and dose-dependent increase in glucose uptake
same,Gαi dependence of glucose uptake stimulation,3T3-L1 adipocytes; Gαi inhibitor pertussis toxin,stimulates glucose uptake via to Gαi activation
same,PI3-kinase dependence of glucose uptake stimulation,3T3-L1 adipocytes; LY294002 pretreatment,dependent on PI3-kinase activation
same,Akt phosphorylation,IRS1 and AKT; LPA treatment of 3T3-L1 adipocytes,stimulated Akt phosphorylation
same,change in blood insulin levels,male ICR mice [2],not due to changes in blood insulin levels
same,level of blood glucose in normal mice,"male ICR mice [1]; LPA study (FIG. 11A, 11B)",lowered the level of blood glucose in normal mice dose-dependently
"CC(=O)c1c(O)c(C)c(O)c(Cc2c(O)c3c(c(C(=O)/C=C/c4ccccc4)c2O)OC(C)(C)C=C3)c1O [rottlerin, reference compound]",effect of pretreatment on LPC-stimulated glucose uptake,3T3-L1 adipocytes; 10 μM rottlerin for 30 min,completely inhibited
lysophosphatidylserine [LPS],time and dose dependence of glucose uptake,3T3-L1 adipocytes; 3T3-L1 adipocytes,stimulate glucose uptake with dose dependent manner
same,stimulation of glucose uptake,3T3-L1 adipocytes,specifically stimulated glucose uptake
same,change in blood insulin levels,male ICR mice [2],not due to changes in blood insulin levels
same,blood glucose concentrations in STZ-treated insulin deficient mice,[3],significantly reduced blood glucose concentrations
same,level of blood glucose in normal mice,"male ICR mice [1]; LPS study (FIG. 7A, 7B)",lowered the level of blood glucose in normal mice dose-dependently
insulin [reference compound],GLUT4 translocation,GLUT4,stimulate GLUT4 translocation
same,phosphorylation of IRS1 and AKT,IRS1 and AKT; 10 nM insulin,augmentation of IRS1 and AKT phosphorylation
"CCCCCCCCCCCCCCCC(=O)OCC(O)COP(=O)(O)OC1C(O)C(O)C(O)C(O)C1O (stereo not shown) [palmytoyl LPI, palmytoyl lyso-phosphatidylinositol, reference compound]",stimulation of glucose uptake,3T3-L1 adipocytes,did not stimulate glucose uptake
